According to paper PMC9416257, “Design, Synthesis and Preliminary Evaluation of the Cytotoxicity and Antibacterial Activity of Novel Triphenylphosphonium Derivatives of Betulin” (Molecules, 2022):

Assays:
[1] = test system: HCT 116 (colorectal carcinoma cell line); experiment: Cytotoxicity, CCK-8 cell viability assay; assay type: cell-based; settings: Homo sapiens, HCT-116; CCK-8 assay; incubation time 24 h; mean ± SD (n = 3); read-out: Activity IC50, HCT 116
Protocol: (§1) The obtained new molecular hybrids of BN were screened in order to initially investigate their cytotoxicity as well as examine the relationships between the structure and biological effect. The common element of all of the tested compounds was the presence of a lipophilic moiety (CH2)nTPP^⊕ (n = 3, 4, 5). The research was conducted on two groups of compounds: 28-TPP^⊕ BN and 3,28-bisTPP^⊕ BN. Their cytotoxicity was investigated on two cancer cell lines: HCT 116 (colorectal carcinoma cell line) and MCF-7 (human breast adenocarcinoma cell line). The proliferation of tumor cells treated with the tested compounds (7 and 9) at 12.5–3.125 µM concentrations were determined after 24 h of incubation. Additionally, all compounds were tested against the NHDF cell line (Normal Human Dermal Fibroblast cells) to assess their safety. Half-maximal inhibitory concentrations (IC50) of triphenylphosphonium analogs of BN were determined using a CCK-8 assay and are summarized in Table 2.
(§2) The human colorectal carcinoma cell line (HCT 116) and the human breast adenocarcinoma cell line (MCF-7) cells were purchased from the American Type Culture Collection (ATCC, Manassas, VA, USA). The Normal Human Dermal Fibroblast (NHDF) cells were purchased from Lonza (Dermal Fibroblasts, Lonza, Poland). All cells were cultured under standard conditions at 37 °C in a humidified atmosphere at 5% CO2 in DMEM/F12 medium (PAA) supplemented with 10% of heat-inactivated fetal bovine serum (FBS, EURx, Gdansk, Poland) and antibiotics (penicillin/streptomycin).
(§3) Cells were seeded at 7500 (HCT 116) or 10,000 (MCF-7, NHDF) cells/well in 96-well plates. After 24 h, the culture medium was removed and 100 µL of fresh medium containing the test compounds at 0–12.5 µM concentrations was added to the culture wells. The test compounds were dissolved in DMSO to obtain a stock solution with a concentration of 5 mM (betulin) or 10 mM (other test compounds). The stock solution was diluted with the fresh culture medium to the desired concentration. Controls were cells grown in medium without the addition of test compounds. After 24 h of incubation with the test compounds, 10 µL of CCK-8 reagent (Bimake, Houston, TX, USA) was added to each well. After 2 h, the absorbance of the samples was measured at a wavelength of 450 nm using a microplate reader (Epoch, BioTek Instruments, Winooski, VT, USA). The determinations were conducted in at least three biological replications (each biological replication contained 3 technical replications). The cell viability rate was calculated using CalcuSyn software (version 2.0, Biosoft, Cambridge, UK).

[2] = test system: MCF-7 (human breast adenocarcinoma cell line); experiment: Cytotoxicity, CCK-8 cell viability assay; assay type: cell-based; settings: MCF7, CCK-8 assay, incubation time 24 h, mean ± SD (n = 3), read-out: Activity IC50, MCF-7
Protocol: as §1, §2
as §3, with “After 24 h, the culture medium was removed and 100 µL of fresh medium containing the test compounds at 0–12.5 µM concentrations was added to the culture wells.” left out

[3] = test system: NHDF (Normal Human Dermal Fibroblast cells); experiment: Cytotoxicity, CCK-8 cell viability assay (safety on normal cells); assay type: cell-based; settings: CCK-8 assay, incubation time 24 h, mean ± SD (n = 3), read-out: Activity IC50, NHDF
Protocol: as §1, §2, §3

S. aureus ATCC 25923 = experiment: Antibacterial assay, optical density of culture in TSB; assay type: cell-based, Staphylococcus aureus; settings: 18 h; for Difference between optical density before and after culture, S. aureus ATCC 25923: 37 °C; for Inhibition of growth of S. aureus ATCC 25923 (in words): 250 µM
Protocol: (§4) Investigations were carried out using different concentrations of solutions from 25 to 250 µM. A 25 µM concentration of the tested derivatives was not enough to inhibit the growth of […]. When the concentration of analogs 7d–7f and 9a–9c increased to 200 µM, the growth of S. aureus ATCC 25923 and S. epidermidis ATCC 12228 was inhibited. Furthermore, the optical density of all compounds remained unchanged after 18 h of bacteria culture. In the case of analogs 7a–7c, the optical density values were between 0.9 and 2.2 when they were cultured with S. aureus ATCC 25923. The bacterial growth was slower compared to the control sample (TSB-culture medium). […] In the case of analog 7c, the optical density increased up to […] after 18 h of the sample culture with both kinds of Gram-positive bacteria. In contrast, the reference sample’s (TSB) optical density increased to 7.5 for S. aureus ATCC 25923, and 4.9 for S. epidermidis ATCC 12228 after 18 h of bacteria culture. […] All of the analog values of the measured optical density were similar to that of the reference sample (5.0–5.1, Table 3).
(§5) Antibacterial analysis was performed using the S. aureus ATCC 25923, S. epidermidis ATCC 12228, and Escherichia coli ATCC 25922 bacteria strains. The test compounds were dissolved in DMSO to obtain a stock solution with a concentration of 5 mM (betulin) or 10 mM (other test compounds). The stock solution was diluted with water to the desired concentration (25–250 µM). Then, 1 mL of the investigated solutions was mixed with 1 mL of culture medium (TSB, Biomaxima, Lublin, Poland) in a sterile glass tube. The initial concentration of bacteria was around 5 × 10^6 CFU/mL. The concentration of bacteria was measured using an optical densitometer before and after 18 h of bacteria culture in glass tubes at 37 °C (incubator POL-EKO, Wodzislaw Slaski, Poland). The investigations were repeated for three independent samples. The control sample was the culture medium without any supplementation.

[4] = test system: S. epidermidis ATCC 12228; experiment: as above; assay type: cell-based, Staphylococcus epidermidis; settings: 18 h; for Difference between optical density before and after culture, S. epidermidis ATCC 12228: 37 °C; for Inhibition of growth of S. epidermidis ATCC 12228 (in words): 250 µM
Protocol: as §4, §5

[5] = test system: Escherichia coli ATCC 25922; experiment: as above; assay type: cell-based; settings: 37 °C, 18 h; further: key: 0: no difference between samples after 18 h of bacteria culture (bacteria grow was inhibited); neg: negative results (analog BN did not inhibit bacteria growing)
Protocol: as §4, §5

SMILES	IC50 [1] [µM]	IC50 [2] [µM]	IC50 [3] [µM]	Difference between optical density before and after culture, S. aureus ATCC 25923 (S. aureus ATCC 25923; 200 μM)	Difference between optical density before and after culture, S. aureus ATCC 25923 (S. aureus ATCC 25923; 250 μM)	Inhibition of growth of S. aureus ATCC 25923 (in words) (S. aureus ATCC 25923)	Difference between optical density before and after culture, S. epidermidis ATCC 12228 ([4]; 200 μM)	Difference between optical density before and after culture, S. epidermidis ATCC 12228 ([4]; 250 μM)	Inhibition of growth of S. epidermidis ATCC 12228 (in words) [4]	Difference between optical density before and after culture, Escherichia coli ATCC 25922 ([5]; 200 μM)	Difference between optical density before and after culture, Escherichia coli ATCC 25922 ([5]; 250 μM)
C=C(C)[C@@H]1CC[C@]2(COC(=O)CCC(=O)OCCC[P+](c3ccccc3)(c3ccccc3)c3ccccc3)CC[C@]3(C)C(CCC4[C@@]5(C)CC[C@H](OC(C)=O)C(C)(C)C5CC[C@]43C)C12 (some centres unmarked) [7a, 3-O-Acetyl-28-O’-(3’-(3"-triphenylphosphoniopropyloxycarbonyl)propanoyl)betulin bromide]	5.56 ± 0.28	13.7 ± 0.54	9.68 ± 0.27	0.9 McFarland’s scale (CFU/mL)	0	greatly inhibited the growth	neg	0	greatly inhibited the growth	neg	neg
C=C(C)[C@@H]1CC[C@]2(COC(=O)CCC(=O)OCCCC[P+](c3ccccc3)(c3ccccc3)c3ccccc3)CC[C@]3(C)C(CCC4[C@@]5(C)CC[C@H](OC(C)=O)C(C)(C)C5CC[C@]43C)C12 (some centres unmarked) [7b, 3-O-Acetyl-28-O’-(3’-(4"-triphenylphosphoniobutyloxycarbonyl)propanoyl)betulin bromide]	5.77 ± 0.27	14.3 ± 0.38	10.7 ± 0.25	2.2 McFarland’s scale (CFU/mL)	0	greatly inhibited the growth	neg	0	greatly inhibited the growth	neg	neg
C=C(C)[C@@H]1CC[C@]2(COC(=O)CCC(=O)OCCCCC[P+](c3ccccc3)(c3ccccc3)c3ccccc3)CC[C@]3(C)C(CCC4[C@@]5(C)CC[C@H](OC(C)=O)C(C)(C)C5CC[C@]43C)C12 (some centres unmarked) [7c, 3-O-Acetyl-28-O’-(3’-(5"-triphenylphosphoniopentyloxycarbonyl)propanoyl)betulin bromide]	6.48 ± 0.04	15.5 ± 0.92	11.3 ± 0.53	1.0 McFarland’s scale (CFU/mL)			neg			neg	neg
C=C(C)[C@@H]1CC[C@]2(COC(=O)CC(C)(C)C(=O)OCCC[P+](c3ccccc3)(c3ccccc3)c3ccccc3)CC[C@]3(C)C(CCC4[C@@]5(C)CC[C@H](OC(C)=O)C(C)(C)C5CC[C@]43C)C12 (some centres unmarked) [7d, 3-O-Acetyl-28-O’-(3’,3’-dimethyl-3’-(3"-triphenylphosphoniopropyloxycarbonyl)propanoyl)betulin bromide]				0	0		0	0		neg	neg
C=C(C)[C@@H]1CC[C@]2(COC(=O)CC(C)(C)C(=O)OCCCC[P+](c3ccccc3)(c3ccccc3)c3ccccc3)CC[C@]3(C)C(CCC4[C@@]5(C)CC[C@H](OC(C)=O)C(C)(C)C5CC[C@]43C)C12 (some centres unmarked) [7e, 3-O-Acetyl-28-O’-(3’,3’-dimethyl-3’-(4"-triphenylphosphoniobutyloxycarbonyl)propanoyl)betulin bromide]				0	0		0	0		neg	neg
C=C(C)[C@@H]1CC[C@]2(COC(=O)CC(C)(C)C(=O)OCCCCC[P+](c3ccccc3)(c3ccccc3)c3ccccc3)CC[C@]3(C)C(CCC4[C@@]5(C)CC[C@H](OC(C)=O)C(C)(C)C5CC[C@]43C)C12 (some centres unmarked) [7f, 3-O-Acetyl-28-O’-(3’,3’-dimethyl-3’-(5"-triphenylphosphoniopentyloxycarbonyl)propanoyl)betulin bromide]	12.7 ± 0.89	50.5 ± 3.92	10 ± 0.48	0	0		0	0		neg	neg
